What was measured:
[1] = test system: VEEV TC83; assay: microbe, parasite or virus in culture; type: cell-based; conditions: Venezuelan equine encephalitis virus, Vero 76, 48 h, read-out: VEEV TC83 EC50 nM
[2] = test system: WEEV California; assay: microbe, parasite or virus in culture; type: cell-based; conditions: Western equine encephalitis virus, Vero 76, 48 h, read-out: WEEV California EC50 nM

SMILES | EC50 [1] | EC50 [2]
COc1ccc(-n2c([C@H]3CCCN3)nc3c(C)cc(C#N)cc3c2=O)cc1F [Example 52, (R)-3-(3-fluoro-4-methoxyphenyl)-8-methyl-4-oxo-2-(pyrrolidin-2-yl)-3,4-dihydroquinazoline-6-carbonitrile] | 1 to 50 nM | 1 to 50 nM
COc1ccc(-n2c([C@H]3CCCN3)nc3c(-c4ccncc4)cc(C#N)cc3c2=O)cc1F [Example 109, (R)-3-(3-fluoro-4-methoxyphenyl)-4-oxo-8-(pyridin-4-yl)-2-(pyrrolidin-2-yl)-3,4-dihydroquinazoline-6-carbonitrile] | 1 to 50 nM | 1 to 50 nM
COc1ccc(-n2c([C@]3(C)CCCN3)nc3c(-c4ccc(C)nc4)cc(C#N)cc3c2=O)cc1F [Example 142, (S)-3-(3-fluoro-4-methoxyphenyl)-8-(6-methylpyridin-3-yl)-2-(2-methylpyrrolidin-2-yl)-4-oxo-3,4-dihydroquinazoline-6-carbonitrile] | 1 to 50 nM | 1 to 50 nM
COc1ccc(-n2c([C@H]3CCCN3)nc3c(-c4cccnc4)cc([N+](=O)[O-])cc3c2=O)cc1 [Example 85, (R)-3-(4-methoxyphenyl)-6-nitro-8-(pyridin-3-yl)-2-(pyrrolidin-2-yl) quinazolin-4 (3H)-one] | 1 to 50 nM | 1 to 50 nM
COc1ccc(-n2c(C3CCCN3)nc3c(-c4cnc5ccccc5c4)cc(C#N)cc3c2=O)cc1F (stereo not shown) [Example 123, 3-(3-fluoro-4-methoxyphenyl)-4-oxo-2-(pyrrolidin-2-yl)-8-(quinolin-3-yl)-3,4-dihydroquinazoline-6-carbonitrile] | 1 to 50 nM | 1 to 50 nM
COc1c(F)cc(-n2c(C34CC(CN3)C4)nc3c(-c4ccnc(C)c4)cc(C#N)cc3c2=O)cc1F [Example 173, 2-(2-azabicyclo[2.1.1]hexan-1-yl)-3-(3,5-difluoro-4-methoxyphenyl)-8-(2-methylpyridin-4-yl)-4-oxo-3,4-dihydroquinazoline-6-carbonitrile] | 51 to 150 nM | 51 to 150 nM
COc1ccc(-n2c(C3CCCN3)nc3c(-c4ccc(O)cc4)cc(C#N)cc3c2=O)cc1F (stereo not shown) [Example 158, 3-(3-Fluoro-4-methoxyphenyl)-8-(4-hydroxyphenyl)-4-oxo-2-(pyrrolidin-2-yl)-3,4-dihydroquinazoline-6-carbonitrile] | 501 to 1000 nM | 501 to 1000 nM
COc1ccc(-n2c(C3CCCN3)nc3c(-c4ccc(CO)cc4)cc(C#N)cc3c2=O)cc1F (stereo not shown) [Example 134, 3-(3-fluoro-4-methoxyphenyl)-8-(4-(hydroxymethyl)phenyl)-4-oxo-2-(pyrrolidin-2-yl)-3,4-dihydroquinazoline-6-carbonitrile] | 1 to 50 nM | 1 to 50 nM
COc1ccc(-n2c(-c3ccon3)nc3c(-c4ccc(C)nc4)cc(C#N)cc3c2=O)cc1F [Example 199, 3-(3-fluoro-4-methoxyphenyl)-2-(isoxazol-3-yl)-8-(6-methylpyridin-3-yl)-4-oxo-3,4-dihydroquinazoline-6-carbonitrile] | 501 to 1000 nM | > 1000 nM
COc1ccc(-n2c([C@H]3CCCN3C3COC3)nc3ccc([N+](=O)[O-])cc3c2=O)cc1 [Example 11, (R)-3-(4-methoxyphenyl)-6-nitro-2-(1-(oxetan-3-yl)pyrrolidin-2-yl) quinazolin-4 (3H)-one] | 51 to 150 nM | 501 to 1000 nM
COc1ccc(-n2c([C@H]3CCC(=O)N3)nc3c(-c4ccc(C)nc4)cc(C#N)cc3c2=O)cc1F [Example 121, (R)-3-(3-fluoro-4-methoxyphenyl)-8-(6-methylpyridin-3-yl)-4-oxo-2-(5-oxopyrrolidin-2-yl)-3,4-dihydroquinazoline-6-carbonitrile] | > 1000 nM | > 1000 nM
COc1c(F)cc(-n2c(C3CCNC3)nc3c(-c4ccc(C)nc4)cc(C#N)cc3c2=O)cc1F (stereo not shown) [Example 188, 3-(3,5-difluoro-4-methoxyphenyl)-8-(6-methylpyridin-3-yl)-4-oxo-2-(pyrrolidin-3-yl)-3,4-dihydroquinazoline-6-carbonitrile] | 1 to 50 nM | 1 to 50 nM
COc1ccc(-n2c(-c3cn(C)cn3)nc3c(-c4ccc(C)nc4)cc(C#N)cc3c2=O)cc1F [Example 200, 3-(3-fluoro-4-methoxyphenyl)-2-(1-methyl-1H-imidazol-4-yl)-8-(6-methylpyridin-3-yl)-4-oxo-3,4-dihydroquinazoline-6-carbonitrile] | > 1000 nM | > 1000 nM
Cc1ccc(-c2cc(C#N)cc3c(=O)n(-c4ccc(N5CCOCC5)c(F)c4)c(C4CCCN4)nc23)cn1 (stereo not shown) [Example 146, 3-(3-Fluoro-4-morpholinophenyl)-8-(6-methylpyridin-3-yl)-4-oxo-2-(pyrrolidin-2-yl)-3,4-dihydroquinazoline-6-carbonitrile] | 151 to 500 nM | 501 to 1000 nM
COc1ccc(-n2c(C3CCCN3)nc3c(-c4ccc(N5CCCC5)nc4)cc(C#N)cc3c2=O)cc1F (stereo not shown) [Example 127, 3-(3-fluoro-4-methoxyphenyl)-4-oxo-8-(6-(pyrrolidin-1-yl)pyridin-3-yl)-2-(pyrrolidin-2-yl)-3,4-dihydroquinazoline-6-carbonitrile] | 1 to 50 nM | 51 to 150 nM
COc1c(F)cc(-n2c(C34CC(CN3)C4)nc3c(-c4cnc(C)c(C)c4)cc(C#N)cc3c2=O)cc1F [Example 176, 2-(2-azabicyclo[2.1.1]hexan-1-yl)-3-(3,5-difluoro-4-methoxyphenyl)-8-(5,6-dimethylpyridin-3-yl)-4-oxo-3,4-dihydroquinazoline-6-carbonitrile] | 1 to 50 nM | 1 to 50 nM
COc1ccc(-n2c([C@H]3CCCN3)nc3c(-c4cncc(F)c4)cc(C#N)cc3c2=O)cc1F [Example 106, (R)-3-(3-fluoro-4-methoxyphenyl)-8-(5-fluoropyridin-3-yl)-4-oxo-2-(pyrrolidin-2-yl)-3,4-dihydroquinazoline-6-carbonitrile] | 1 to 50 nM | 1 to 50 nM
COc1ccc(-n2c([C@@H]3CC(=O)CN3)nc3c(-c4ccc(C)nc4)cc(C#N)cc3c2=O)cc1F [Example 185, (S)-3-(3-fluoro-4-methoxyphenyl)-8-(6-methylpyridin-3-yl)-4-oxo-2-(4-oxopyrrolidin-2-yl)-3,4-dihydroquinazoline-6-carbonitrile] | 151 to 500 nM | > 1000 nM
COc1ccc(-n2c([C@H]3CCNC3)nc3c(C)cc([N+](=O)[O-])cc3c2=O)cc1F [Example 65, (S)-3-(3-fluoro-4-methoxyphenyl)-8-methyl-6-nitro-2-(pyrrolidin-3-yl) quinazolin-4 (3H)-one] | 51 to 150 nM | 51 to 150 nM
O=c1c2cc([N+](=O)[O-])ccc2nc([C@@H]2CCCN2C2CCOCC2)n1-c1ccccc1 [Example 6, (S)-6-nitro-3-phenyl-2-(1-(tetrahydro-2H-pyran-4-yl)pyrrolidin-2-yl)quinazolin-4 (3H)-one] | 501 to 1000 nM | > 1000 nM
COc1ccc(-n2c(C3CCCN3)nc3c(-c4ccc(OC)c(OC)c4)cc(C#N)cc3c2=O)cc1F (stereo not shown) [Example 152, 8-(3,4-Dimethoxyphenyl)-3-(3-fluoro-4-methoxyphenyl)-4-oxo-2-(pyrrolidin-2-yl)-3,4-dihydroquinazoline-6-carbonitrile] | 1 to 50 nM | 1 to 50 nM
Cc1ccc(-c2cc(C#N)cc3c(=O)n(-c4ccc(N(C)C)c(F)c4)c(C4CCCN4)nc23)cn1 (stereo not shown) [Example 145, 3-(4-(Dimethylamino)-3-fluorophenyl)-8-(6-methylpyridin-3-yl)-4-oxo-2-(pyrrolidin-2-yl)-3,4-dihydroquinazoline-6-carbonitrile] | 1 to 50 nM | 151 to 500 nM
COc1c(F)cc(-n2c(C3CCCN3)nc3c(-c4ccc(C(C)(C)O)cc4)cc(C#N)cc3c2=O)cc1F (stereo not shown) [Example 171, 3-(3,5-difluoro-4-methoxyphenyl)-8-(4-(2-hydroxypropan-2-yl)phenyl)-4-oxo-2-(pyrrolidin-2-yl)-3,4-dihydroquinazoline-6-carbonitrile] | 51 to 150 nM | 51 to 150 nM
COc1ccc(-n2c([C@H]3CCCN3)nc3c(-c4ccnc(F)c4)cc(C#N)cc3c2=O)cc1F [Example 104, (R)-3-(3-fluoro-4-methoxyphenyl)-8-(2-fluoropyridin-4-yl)-4-oxo-2-(pyrrolidin-2-yl)-3,4-dihydroquinazoline-6-carbonitrile] | 1 to 50 nM | 1 to 50 nM
COc1ccc(-n2c([C@H]3CCCN3)nc3c(-c4cncnc4)cc(C#N)cc3c2=O)cc1F [Example 105, (R)-3-(3-fluoro-4-methoxyphenyl)-4-oxo-8-(pyrimidin-5-yl)-2-(pyrrolidin-2-yl)-3,4-dihydroquinazoline-6-carbonitrile] | 51 to 150 nM | 151 to 500 nM
O=c1c2cc([N+](=O)[O-])ccc2nc(C2CCCN2)n1-c1ccccc1F (stereo not shown) [Example 41, 3-(2-fluorophenyl)-6-nitro-2-(pyrrolidin-2-yl)quinazolin-4 (3H)-one] | 501 to 1000 nM | > 1000 nM
COc1ccc(-n2c([C@H]3CC(=O)CN3)nc3c(-c4ccc(C)nc4)cc(C#N)cc3c2=O)cc1F [Example 186, (R)-3-(3-fluoro-4-methoxyphenyl)-8-(6-methylpyridin-3-yl)-4-oxo-2-(4-oxopyrrolidin-2-yl)-3,4-dihydroquinazoline-6-carbonitrile] | 151 to 500 nM | 501 to 1000 nM
COc1c(F)cc(-n2c(C3CCCN3)nc3c(-c4ccc(CO)nc4)cc(C#N)cc3c2=O)cc1F (stereo not shown) [Example 180, 3-(3,5-difluoro-4-methoxyphenyl)-8-(6-(hydroxymethyl)pyridin-3-yl)-4-oxo-2-(pyrrolidin-2-yl)-3,4-dihydroquinazoline-6-carbonitrile] | 1 to 50 nM | 1 to 50 nM
COc1ccc(-n2c(C3CCCN3)nc3c(C#Cc4ccc(C)nc4)cc(C#N)cc3c2=O)cc1F (stereo not shown) [Example 194, 3-(3-Fluoro-4-methoxyphenyl)-8-((6-methylpyridin-3-yl)ethynyl)-4-oxo-2-(pyrrolidin-2-yl)-3,4-dihydroquinazoline-6-carbonitrile] | 51 to 150 nM | 51 to 150 nM
